# Laboratory results published in patent US6362369B1, “Phthalic acid diamide derivatives fluorine-containing aniline compounds as starting material, agricultural and horticultural insecticides, and a method for application of the insecticides” (Nihon Nohyaku Co., Ltd., priority 1997, dated 2002).
# How the values were obtained:
# Assay type in all cases: in vivo
# [1] = test system: common cutworm (Spodoptera Litura); assay: Insecticidal effect on common cutworm (Test Example 2); conditions: 500 ppm, 25° C.; for Insecticidal effect, Test Example 2: cabbage leaf immersed; for Insecticidal effect, Test Example 2 / Insecticidal effect on common cutworm (Test Example 2), judged grade: eight days after inoculation; for Insecticidal effect (Test Example 2), judged from mortality / Insecticidal effect on common cutworm (Test Example 2), judged grade: cabbage leaf dip; for Insecticidal effect (Test Example 2), judged from mortality: 8 days after inoculation; for Insecticidal effect on common cutworm (Test Example 2), judged grade: second-instar larvae
# Procedure, shortened: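 After the treated material air-dries, it goes into a dish, second-instar larvae are added, and the dish is closed. Incubation runs at 25° C. On day eight, dead and living larvae are scored, and the calculated mortality is rated on an effect scale.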
# [2] = test system: diamondback moth (Plutella xylostella); assay: Insecticidal effect on diamondback moth (Test Example 1); conditions: for Insecticidal effect, Test Example 1 / Insecticidal effect (Test Example 1), judged from mortality: diamondback moth; for Insecticidal effect (Test Example 1), judged from mortality: judged by the criterion of Test Example 1; for Insecticidal effect on diamondback moth (Test Example 1), judged grade: mortality judged according to the criterion shown in Test Example 1
# Procedure, shortened: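 Oviposition by adults on Chinese cabbage seedling; immersion; air-dry; 25° C room. Count of hatched larvae at day 6 post-immersion → mortality → effect graded by criterion. Triplicate, 10 insects/group.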
# [3] = test system: rice leafroller (Cnaphalocrocis medinalis); assay: Insecticidal effect on rice leafroller (Test Example 3); conditions: 500 ppm, 25° C., humidity 70%; for Insecticidal effect, Test Example 3: rice lamina immersed; for Insecticidal effect, Test Example 3 / Insecticidal effect on rice leafroller (Test Example 3), judged grade: four days after inoculation; for Insecticidal effect (Test Example 3), judged from mortality / Insecticidal effect on rice leafroller (Test Example 3), judged grade: rice lamina dip; for Insecticidal effect (Test Example 3), judged from mortality: 4 days after inoculation; for Insecticidal effect on rice leafroller (Test Example 3), judged grade: third-instar larvae
# Procedure, shortened: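 Insecticidal effect is judged by a predefined criterion from dead/alive counts four days after infesting air-dried lamina with third-instar larvae, kept on moistened filter paper at 25° C, 70% humidity.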
# [4] = second-instar larvae of common cutworm
# [5] = judged by the mortality criterion of Test Example 1
# [6] = third-instar larvae of rice leafroller
# [7] = common cutworm second-instar larvae
# [8] = mortality judged by criterion of Test Example 1
# [9] = rice leafroller third-instar larvae
smiles,measurement,setting,value
Cc1cccc(NC(=O)c2c(Cl)cccc2C(=O)NC(C)C)c1C [compound 213],"Insecticidal effect, Test Example 2",[1]; [4],A (100)
same,"Insecticidal effect, Test Example 1",[2]; [5],A (100)
same,"Insecticidal effect, Test Example 3",[3]; [6],A (100)
CCOCCN(CCOCC)C(=O)c1c(I)cccc1C(=O)Nc1ccc(C(F)(F)C(F)(F)F)cc1C [compound 1046],"Insecticidal effect, Test Example 2",[1]; [7],A (100)
same,"Insecticidal effect, Test Example 1",[2]; [8],A (100)
same,"Insecticidal effect, Test Example 3",[3]; [9],A (100)
Cc1cc(OC(F)(F)C(F)OC(F)(F)F)ccc1NC(=O)c1cccc(I)c1C(=O)NC(C)C (stereo not drawn) [compound 395],"Insecticidal effect, Test Example 2",[1]; [4],A (100)
same,"Insecticidal effect, Test Example 1",[2]; [5],A (100)
same,"Insecticidal effect, Test Example 3",[3]; [6],A (100)
C#CC(C)(C)NC(=O)c1c(Cl)cccc1C(=O)Nc1ccc(C(F)(F)C(F)(F)F)cc1C [compound 1466],"Insecticidal effect (Test Example 2), judged from mortality",[1]; [4],A (100)
same,"Insecticidal effect (Test Example 1), judged from mortality",[2],A (100)
same,"Insecticidal effect (Test Example 3), judged from mortality",[3]; [6],A (100)
CCCNC(=O)c1cccc(Cl)c1C(=O)Nc1cc(-c2ccccc2)ccc1OC [compound 1297],"Insecticidal effect, Test Example 2",[1]; [7],A (100)
same,"Insecticidal effect, Test Example 1",[2]; [8],A (100)
same,"Insecticidal effect, Test Example 3",[3]; [9],A (100)
Cc1c(Cl)ccc(NC(=O)c2cccc([N+](=O)[O-])c2C(=O)NC(C)C)c1C [compound 669],"Insecticidal effect on common cutworm (Test Example 2), judged grade",[1],D (79-50)
same,"Insecticidal effect on diamondback moth (Test Example 1), judged grade",[2],A (100)
same,"Insecticidal effect on rice leafroller (Test Example 3), judged grade",[3],A (100)
CCN(CC)C(=O)c1c(I)cccc1C(=O)Nc1ccc(SC(F)(F)F)cc1 [compound 1128],"Insecticidal effect, Test Example 2",[1]; [7],A (100)
same,"Insecticidal effect, Test Example 1",[2]; [8],A (100)
same,"Insecticidal effect, Test Example 3",[3]; [9],A (100)
Cc1cc(OC(F)(F)C(F)F)c(Cl)cc1NC(=O)c1c(Cl)cccc1C(=O)NC(C)C [compound 246],"Insecticidal effect, Test Example 2",[1]; [4],B (99-90)
same,"Insecticidal effect, Test Example 1",[2]; [5],A (100)
same,"Insecticidal effect, Test Example 3",[3]; [6],B (99-90)
CCc1cc(C(F)(F)C(F)(F)F)ccc1NC(=O)c1cccc(F)c1C(=O)N(CC)CC [compound 1549],"Insecticidal effect (Test Example 2), judged from mortality",[1]; [4],D (79-50)
same,"Insecticidal effect (Test Example 1), judged from mortality",[2],A (100)
same,"Insecticidal effect (Test Example 3), judged from mortality",[3]; [6],A (100)
Cc1c(NC(=O)c2cccc([N+](=O)[O-])c2C(=O)NC(C)C)cccc1OC(F)F [compound 695],"Insecticidal effect on common cutworm (Test Example 2), judged grade",[1],A (100)
same,"Insecticidal effect on diamondback moth (Test Example 1), judged grade",[2],A (100)
same,"Insecticidal effect on rice leafroller (Test Example 3), judged grade",[3],A (100)
Cc1cc(F)ccc1NC(=O)c1cccc([N+](=O)[O-])c1C(=O)NC(C)C [compound 675],"Insecticidal effect on common cutworm (Test Example 2), judged grade",[1],A (100)
same,"Insecticidal effect on diamondback moth (Test Example 1), judged grade",[2],A (100)
same,"Insecticidal effect on rice leafroller (Test Example 3), judged grade",[3],A (100)
Cc1cc(C(F)(C(F)(F)F)C(F)(F)F)ccc1NC(=O)c1cccc(I)c1C(=O)NC(C)c1ccccn1 (stereo not drawn) [compound 1773],"Insecticidal effect (Test Example 2), judged from mortality",[1]; [4],A (100)
same,"Insecticidal effect (Test Example 1), judged from mortality",[2],A (100)
same,"Insecticidal effect (Test Example 3), judged from mortality",[3]; [6],A (100)
Cc1cc(OC(F)(F)C(F)(Br)C(F)(F)F)ccc1NC(=O)c1c(Cl)cccc1C(=O)NC(C)C (stereo not drawn) [compound 243],"Insecticidal effect, Test Example 2",[1]; [4],A (100)
same,"Insecticidal effect, Test Example 1",[2]; [5],A (100)
same,"Insecticidal effect, Test Example 3",[3]; [6],B (99-90)
CC(C)NC(=O)c1c(Cl)cccc1C(=O)Nc1ccc(C=C(Cl)Cl)cc1 [compound 915],"Insecticidal effect on common cutworm (Test Example 2), judged grade",[1],A (100)
same,"Insecticidal effect on diamondback moth (Test Example 1), judged grade",[2],A (100)
same,"Insecticidal effect on rice leafroller (Test Example 3), judged grade",[3],A (100)
Cc1cc(OCC(F)(F)C(F)F)ccc1NC(=O)c1c(Cl)cccc1C(=O)NC(C)C [compound 230],"Insecticidal effect, Test Example 2",[1]; [4],C (89-80)
same,"Insecticidal effect, Test Example 1",[2]; [5],A (100)
same,"Insecticidal effect, Test Example 3",[3]; [6],A (100)
CCc1cc(C(F)(F)C(F)(F)F)ccc1NC(=O)c1cccc(I)c1C(=O)NC(C)C [compound 1017],"Insecticidal effect, Test Example 2",[1]; [7],A (100)
same,"Insecticidal effect, Test Example 1",[2]; [8],A (100)
same,"Insecticidal effect, Test Example 3",[3]; [9],A (100)
Cc1c(Cl)cccc1NC(=O)c1cccc(I)c1C(=O)NC(C)C [compound 361],"Insecticidal effect, Test Example 2",[1]; [4],A (100)
same,"Insecticidal effect, Test Example 1",[2]; [5],A (100)
same,"Insecticidal effect, Test Example 3",[3]; [6],A (100)
Cc1cc(NC(=O)c2cccc(I)c2C(=O)NC(C)(C)C)ccc1C(F)(F)C(F)(F)F [compound 1552],"Insecticidal effect (Test Example 2), judged from mortality",[1]; [4],A (100)
same,"Insecticidal effect (Test Example 1), judged from mortality",[2],A (100)
same,"Insecticidal effect (Test Example 3), judged from mortality",[3]; [6],A (100)
CC(C)NC(=O)c1cc(Cl)ccc1C(=O)Nc1ccc(Cl)cc1Cl [compound 173],"Insecticidal effect, Test Example 2",[1]; [4],D (79-50)
same,"Insecticidal effect, Test Example 1",[2]; [5],A (100)
same,"Insecticidal effect, Test Example 3",[3]; [6],D (79-50)
